These results are taken from PubChem BioAssay (NCI).

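Protocol summary: plate cells (96-well), add compound at 5 concentrations, incubate 48 h, interpolate endpoints linearly. At the TGI there is no net growth.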 Bounds are passed on as bounds.

Some test systems named below: ACHN renal; BT-549 breast; CAKI-1 renal; HT29 colon; KM12 colon; M14 melanoma; MCF7 breast; MDA-N; NCI-H226 lung; NCI-H522 lung; OVCAR-8 ovarian; PC-3 prostate; SF-268 CNS; SNB-75 CNS.
Experiment in all cases: NCI-60 cell line screen, 48 h

`CC(C)Sc1nc(C#N)cc2c1CCCC2`: the TGI in the experiment with ACHN renal, in the experiment on BT-549 breast, with CAKI-1 renal, in the experiment with HT29 colon, with KM12 colon and with M14 melanoma was greater than 100 µM throughout. The TGI with MCF7 breast is greater than 100 µM; in the experiment with MDA-N, greater than 100 µM; with NCI-H226 lung it was greater than 100 µM; with NCI-H522 lung, 78.4 µM; in the experiment with OVCAR-8 ovarian it was greater than 100 µM; with PC-3 prostate, greater than 100 µM. For the same molecule, the TGI in the experiment on SF-268 CNS and with SNB-75 CNS was greater than 100 µM throughout.
Take `CC(C)=CCOC(=O)C(C)=[N+]=[N-]`: the TGI in the experiment on ACHN renal, with BT-549 breast, in the experiment with CAKI-1 renal, with HT29 colon, with KM12 colon and in the experiment on MCF7 breast was greater than 100 µM each time. Also, the TGI in the experiment with MDA-N, in the experiment on NCI-H226 lung, in the experiment on NCI-H522 lung, in the experiment with OVCAR-8 ovarian, in the experiment on PC-3 prostate and in the experiment on SF-268 CNS was greater than 100 µM throughout. This molecule also registered a TGI in the experiment on SNB-75 CNS greater than 100 µM.
Consider `O=C1C(Cl)=C(N2CCN(C3=C(Cl)C(=O)c4ccccc4C3=O)CC2)C(=O)c2ccccc21`, for which the TGI in the experiment on ACHN renal is 3.09 µM; in the experiment on BT-549 breast it was 3.12 µM; with CAKI-1 renal it was 3.48 µM; in the experiment on HT29 colon, 5.27 µM; in the experiment on KM12 colon, 15.4 µM; in the experiment with M14 melanoma, 2.87 µM. Also, the TGI in the experiment with MCF7 breast was 3.34 µM; with MDA-N it was 3.29 µM; with NCI-H226 lung it was 11.8 µM; in the experiment with NCI-H522 lung, 1.83 µM; in the experiment on OVCAR-8 ovarian, 3.16 µM; with PC-3 prostate, 20.3 µM. Further, the TGI worked out at 6.1 µM with SF-268 CNS and 9.86 µM in the experiment with SNB-75 CNS.
Take `CCN(CC)CCc1c2c(nc3ccccc13)C(=O)c1cccnc1C2=O`: the TGI turned out to be 7.56 µM with BT-549 breast; 4.9 µM in the experiment with CAKI-1 renal; 11.1 µM in the experiment with HT29 colon; 6.57 µM in the experiment with KM12 colon; 1.73 µM with M14 melanoma; 1.51 µM with MCF7 breast. For the same molecule, the TGI in the experiment with MDA-N is 4.54 µM; in the experiment with NCI-H226 lung it was 18.2 µM; in the experiment with NCI-H522 lung, 6.46 µM; in the experiment with OVCAR-8 ovarian, greater than 100 µM; in the experiment on PC-3 prostate, 18.6 µM; with SF-268 CNS, greater than 100 µM. Further, in the experiment with SNB-75 CNS, the TGI turned out to be 16.7 µM.
Turning to `NC(=O)N/N=C(\Cc1nc2ccc(Cl)cc2[nH]c1=O)C(=O)Nc1ccc(Cl)cc1Cl`, the TGI in the experiment on ACHN renal, in the experiment on BT-549 breast, in the experiment with CAKI-1 renal, in the experiment on HT29 colon, with KM12 colon and in the experiment with M14 melanoma was greater than 100 µM each time. The TGI in the experiment with MCF7 breast, in the experiment with MDA-N, in the experiment on NCI-H226 lung, in the experiment with NCI-H522 lung, in the experiment on OVCAR-8 ovarian and in the experiment on PC-3 prostate was greater than 100 µM each time. Also, the TGI in the experiment on SF-268 CNS and in the experiment on SNB-75 CNS was greater than 100 µM in each case.
`Cc1ccc(-c2c(C#N)c(-c3ccccc3)n(NS(=O)(=O)c3ccccc3)c(=O)c2C#N)cc1`: the TGI in the experiment on ACHN renal, in the experiment on BT-549 breast, in the experiment on CAKI-1 renal, with HT29 colon, in the experiment on KM12 colon and in the experiment with M14 melanoma was greater than 100 µM throughout. Further, the TGI in the experiment on MCF7 breast, in the experiment on MDA-N, in the experiment on NCI-H226 lung, in the experiment on NCI-H522 lung, in the experiment on OVCAR-8 ovarian and in the experiment on PC-3 prostate was greater than 100 µM each time. In addition, the TGI in the experiment with SF-268 CNS and in the experiment with SNB-75 CNS was greater than 100 µM each time.
For the molecule `COc1cccc(-c2cc(=O)c3ccccc3o2)c1N`, the TGI in the experiment with ACHN renal, in the experiment with BT-549 breast, in the experiment on CAKI-1 renal, with HT29 colon, with KM12 colon and with M14 melanoma was greater than 100 µM each time. In addition, the TGI with MCF7 breast, in the experiment on MDA-N, with NCI-H226 lung, in the experiment on NCI-H522 lung, with OVCAR-8 ovarian and in the experiment with PC-3 prostate was greater than 100 µM in each case. Besides, the TGI in the experiment on SF-268 CNS and in the experiment with SNB-75 CNS was greater than 100 µM each time.
For `CCOc1cc(NC(C)=O)ccc1C(=O)NNC(=O)c1ccccc1OC(C)=O`, the TGI in the experiment on ACHN renal was greater than 100 µM; in the experiment on BT-549 breast, greater than 100 µM; in the experiment with CAKI-1 renal it was greater than 50 µM; with HT29 colon, greater than 100 µM; with KM12 colon it was greater than 100 µM; with M14 melanoma it was 26.6 µM. In addition, the TGI was greater than 100 µM in the experiment with MCF7 breast; greater than 100 µM in the experiment on MDA-N; greater than 59.3 µM in the experiment on NCI-H226 lung; greater than 100 µM with NCI-H522 lung; greater than 100 µM in the experiment on OVCAR-8 ovarian; greater than 100 µM in the experiment on PC-3 prostate. Besides, the results for the TGI with SF-268 CNS and with SNB-75 CNS were greater than 100 µM and greater than 38.7 µM, respectively.
On to `OCC1CCCCCCCCCCC12SCCCS2` (configuration not stated), for which the TGI in the experiment on ACHN renal, with BT-549 breast, in the experiment with CAKI-1 renal, with HT29 colon, with KM12 colon and in the experiment on M14 melanoma was greater than 100 µM each time. Moreover, the TGI with MCF7 breast, in the experiment on MDA-N, with NCI-H226 lung, with NCI-H522 lung, in the experiment with PC-3 prostate and in the experiment on SF-268 CNS was greater than 100 µM each time. In the experiment with SNB-75 CNS, this molecule came in with a TGI greater than 100 µM.
Regarding `COCOC1/C=C/CCCC#C[C@H](C)C(=O)CC1` (some centres not stated), the TGI in the experiment with ACHN renal is 27.8 µM; with BT-549 breast, 27.1 µM; in the experiment on CAKI-1 renal, 24.7 µM; in the experiment on HT29 colon it was 13.6 µM; with KM12 colon, 17 µM; in the experiment on M14 melanoma, 21 µM. Further, the TGI in the experiment with MCF7 breast was 23.1 µM; with MDA-N, 24.3 µM; with NCI-H226 lung, 35 µM; with NCI-H522 lung it was 18.1 µM; with OVCAR-8 ovarian it was 38 µM; with PC-3 prostate, 21.5 µM. In addition, the TGI in the experiment on SF-268 CNS is 26.5 µM; with SNB-75 CNS, 25.3 µM.
